A word on the Ki: it is a measure of affinity in units of concentration, obtained from inhibition or displacement. A lower Ki goes with higher affinity. As usually defined, the ED50 is the midpoint of the dose-response relation. A higher ED50 goes with a need for a large dose. What is called inhibition is how much of the control response was suppressed. Low values mean little suppression, high ones strong suppression.

For one experiment, the target named is D(2) dopamine receptor (Rattus norvegicus, UniProt P61169). Nature of the experiment: Binding affinity against dopamine receptor D2 from rat corpus striatum by using radioligand [3H]sulpiride.
Chain of D(2) dopamine receptor (P61169 whole entry): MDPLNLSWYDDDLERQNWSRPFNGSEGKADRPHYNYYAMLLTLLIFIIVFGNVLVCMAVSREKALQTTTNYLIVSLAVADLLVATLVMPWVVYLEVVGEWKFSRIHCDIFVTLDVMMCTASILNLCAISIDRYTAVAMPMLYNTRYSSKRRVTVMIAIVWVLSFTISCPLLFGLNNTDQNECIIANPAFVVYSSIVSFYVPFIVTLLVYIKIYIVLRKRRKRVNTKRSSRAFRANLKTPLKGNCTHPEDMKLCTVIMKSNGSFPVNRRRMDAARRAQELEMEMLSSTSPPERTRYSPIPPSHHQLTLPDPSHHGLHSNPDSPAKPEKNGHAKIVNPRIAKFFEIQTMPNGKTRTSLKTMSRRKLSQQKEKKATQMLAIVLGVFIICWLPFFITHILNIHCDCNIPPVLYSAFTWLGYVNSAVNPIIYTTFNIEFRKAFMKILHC
Experiment [1] concerns the target 5-HT2A receptor (Rattus norvegicus). Nature of the experiment: Binding affinity against 5-hydroxytryptamine 2 receptor from rat cortical synaptosomal membrane using radioligand [3H]ketanserin.
For experiment [2], the target named is Serotonin 2 (5-HT2) receptor (Mus musculus) (UniProt Q02152+P34968+P35363). Nature of the experiment: Effective dose through peroral route for in vivo inhibition against 5-hydroxytryptamine 2 receptor in male CF-1 mice by using radioligand [3H]ketanserin. The experiment is classed as organism-based.
Chain of Serotonin 2 (5-HT2) receptor (Mus musculus) (P34968 whole entry, looked up): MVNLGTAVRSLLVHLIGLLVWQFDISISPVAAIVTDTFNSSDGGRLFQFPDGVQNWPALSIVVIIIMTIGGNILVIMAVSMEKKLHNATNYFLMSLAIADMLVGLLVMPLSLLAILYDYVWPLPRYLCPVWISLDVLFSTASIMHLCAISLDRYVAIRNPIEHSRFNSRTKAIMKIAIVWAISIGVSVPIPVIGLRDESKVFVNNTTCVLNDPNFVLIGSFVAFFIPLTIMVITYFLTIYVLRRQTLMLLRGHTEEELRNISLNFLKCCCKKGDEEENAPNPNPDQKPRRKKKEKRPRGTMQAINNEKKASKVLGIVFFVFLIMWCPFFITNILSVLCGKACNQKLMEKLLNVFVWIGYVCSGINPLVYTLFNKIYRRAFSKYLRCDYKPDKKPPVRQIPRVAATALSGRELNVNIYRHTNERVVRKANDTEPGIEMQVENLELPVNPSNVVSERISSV
Chain of Serotonin 2 (5-HT2) receptor (Mus musculus) (P35363 whole entry, looked up): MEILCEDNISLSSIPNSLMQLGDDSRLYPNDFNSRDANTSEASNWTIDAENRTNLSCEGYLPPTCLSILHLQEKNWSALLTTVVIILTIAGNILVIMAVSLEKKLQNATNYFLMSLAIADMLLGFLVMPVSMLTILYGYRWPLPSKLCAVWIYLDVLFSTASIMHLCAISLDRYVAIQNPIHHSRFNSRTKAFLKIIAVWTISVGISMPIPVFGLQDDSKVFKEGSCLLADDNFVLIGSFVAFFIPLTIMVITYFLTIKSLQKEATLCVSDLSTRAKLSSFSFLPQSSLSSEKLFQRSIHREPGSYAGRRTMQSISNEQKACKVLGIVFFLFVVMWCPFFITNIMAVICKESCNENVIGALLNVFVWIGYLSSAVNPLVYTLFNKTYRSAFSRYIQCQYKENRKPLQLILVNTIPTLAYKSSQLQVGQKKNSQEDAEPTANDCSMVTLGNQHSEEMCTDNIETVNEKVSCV
Chain of Serotonin 2 (5-HT2) receptor (Mus musculus) (Q02152 whole entry, looked up): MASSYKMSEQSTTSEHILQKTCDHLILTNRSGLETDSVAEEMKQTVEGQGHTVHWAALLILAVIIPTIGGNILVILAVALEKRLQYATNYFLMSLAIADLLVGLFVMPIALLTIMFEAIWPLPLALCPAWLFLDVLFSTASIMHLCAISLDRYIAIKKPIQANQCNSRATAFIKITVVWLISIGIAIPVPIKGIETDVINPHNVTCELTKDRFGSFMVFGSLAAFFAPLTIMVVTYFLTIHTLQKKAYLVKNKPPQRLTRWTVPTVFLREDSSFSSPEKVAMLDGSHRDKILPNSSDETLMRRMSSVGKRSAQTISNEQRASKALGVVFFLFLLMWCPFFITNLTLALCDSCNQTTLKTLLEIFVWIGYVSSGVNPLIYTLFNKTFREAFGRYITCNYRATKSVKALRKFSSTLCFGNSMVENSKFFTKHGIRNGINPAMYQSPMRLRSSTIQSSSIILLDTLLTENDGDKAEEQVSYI

Take `Fc1ccc2c(CCCN3C4CCCC3c3c([nH]c5ccc(F)cc35)C4)noc2c1` (stereo unspecified): the results for the Ki (on D(2) dopamine receptor; in experiment [1]) were 0.248 µM and 0.0134 µM, respectively. In experiment [2], `O=C(CCCCN1C2CCC1c1c([nH]c3ccccc13)C2)c1ccc(F)cc1` (stereo unspecified) gave an ED50 of 7.32 mg/kg. Turning to `c1ccc2c(c1)ccn2CCCCN1C2CCC1c1c([nH]c3ccccc13)C2` (stereo unspecified), the Ki on D(2) dopamine receptor was 0.635 µM; in experiment [1] it was 0.284 µM. Take `O=C(CCCN1C2CCCC1c1c([nH]c3ccccc13)C2)c1ccc(F)cc1` (stereo unspecified): in experiment [2], the ED50 turned out to be 16.3 mg/kg. Moreover, in experiment [1], the Ki was found to be 0.00085 µM.

`c1ccc2c3c([nH]c2c1)CC1CCC3N1` (stereo unspecified) gave a Ki on D(2) dopamine receptor of over 10 µM. As for `O=C(CCCCN1C2CCCC1c1c([nH]c3ccccc13)C2)c1ccccc1` (stereo unspecified), the inhibitory constant (Ki) on D(2) dopamine receptor was determined as 0.0435 µM; in experiment [1], 0.0209 µM. `O=C(CCCN1C2CCC1c1c([nH]c3ccc(F)cc13)C2)c1ccc(F)cc1` (stereo unspecified) registered an ED50 in experiment [2] of 41.1 mg/kg. For the compound `O=S1(=O)c2cccc3cccc(c23)N1CCCCN1C2CCC1c1c([nH]c3ccc(F)cc13)C2` (stereo unspecified), the Ki on D(2) dopamine receptor is 1.01 µM; in experiment [1], 1.245 µM. In the case of `O=C1CC2CCC(C1)N2CCCC(=O)c1ccc(F)cc1`, the Ki on D(2) dopamine receptor is 0.0013 µM; in experiment [1], 0.533 µM. In the case of `O=C(CCCN1C2CCC1c1c([nH]c3ccccc13)C2)c1cccs1` (stereo unspecified), the Ki on D(2) dopamine receptor turned out to be 0.55 µM. Regarding `O=C1c2ccccc2C(=O)N1CCCCN1C2CCC1c1c([nH]c3ccccc13)C2` (stereo unspecified), the Ki was 2.63 µM on D(2) dopamine receptor and 0.879 µM in experiment [1].

For `c1ccc2c(CCCN3C4CCC3c3c([nH]c5ccccc35)C4)c[nH]c2c1` (stereo unspecified), the Ki at D(2) dopamine receptor was 1.16 µM. On to `Fc1ccc(CCCCN2C3CCCC2c2c([nH]c4ccc(F)cc24)C3)cc1` (stereo unspecified), for which the values for the Ki (at D(2) dopamine receptor; in experiment [1]) were 1.96 µM and 0.143 µM, respectively. Regarding `Fc1ccc(CCCCN2C3CCCC2c2c([nH]c4ccccc24)C3)cc1` (stereo unspecified), the Ki on D(2) dopamine receptor was found to be 0.973 µM; in experiment [1] it was 0.0245 µM. Take `Fc1ccc2c(CCCCN3C4CCCC3c3c([nH]c5cccc(F)c35)C4)noc2c1` (stereo unspecified): the values for the Ki (on D(2) dopamine receptor; in experiment [1]) were 0.131 µM and 0.133 µM, respectively. In the case of `Cc1nc2sccn2c(=O)c1CCN1CCC(=C(c2ccc(F)cc2)c2ccc(F)cc2)CC1` [RITANSERIN], the ED50 in experiment [2] turned out to be 0.14 mg/kg. The compound also showed an inhibitory constant (Ki) on D(2) dopamine receptor of 0.093 µM. `O=C(CCCCN1C2CCC1c1c([nH]c3ccc(F)cc13)C2)c1ccc(F)cc1` (stereo unspecified): at D(2) dopamine receptor, affinity was put at a Ki of 0.0341 µM.

On to `O=C(CCCN1C2CCC1c1c([nH]c3ccccc13)C2)c1ccccc1` (stereo unspecified), for which the inhibition in experiment [2] came to 12%. The results for the inhibitory constant (Ki) (at D(2) dopamine receptor; in experiment [1]) were 0.54 µM and 0.00655 µM, respectively. In experiment [1], `O=C(CCCN1C2CCC1c1c(n(-c3ccccc3)c3ccccc13)C2)c1ccc(F)cc1` (stereo unspecified) gave a Ki of 0.33 µM. Regarding `c1ccc(CCCCN2C3CCCC2c2c([nH]c4ccccc24)C3)cc1` (stereo unspecified), the Ki on D(2) dopamine receptor was 0.67 µM; in experiment [1] it was 0.103 µM. For the compound `O=C(CCCCN1C2CCC1c1c([nH]c3ccc(F)cc13)C2)c1ccccc1` (stereo unspecified), the ED50 in experiment [2] turned out to be 0.65 mg/kg. Also, the values for the inhibitory constant (Ki) (at D(2) dopamine receptor; in experiment [1]) were 0.00277 µM and 0.00298 µM, respectively.

Take `c1ccc2sc(CCCCN3C4CCC3c3c([nH]c5ccccc35)C4)cc2c1` (stereo unspecified): the Ki at D(2) dopamine receptor came to 0.416 µM; in experiment [1] it was 0.61 µM. The corresponding values for `O=C(CCCN1C2CCC1c1c([nH]c3ccc(F)cc13)C2)c1ccco1` (stereo unspecified) are 0.643 µM and 0.264 µM. The compound `Fc1ccc2[nH]c3c(c2c1)C1CCCC(C3)N1CCCCc1ccccc1` (stereo unspecified) displayed a Ki in experiment [1] of 0.172 µM.

Regarding `c1ccc2c(CCCCN3C4CCC3c3c([nH]c5ccccc35)C4)c[nH]c2c1` (stereo unspecified), the Ki at D(2) dopamine receptor turned out to be 0.853 µM; in experiment [1], 0.329 µM. Consider `O=C(CCCCN1C2CCCC1c1c([nH]c3ccc(F)cc13)C2)c1ccccc1` (stereo unspecified), for which the Ki at D(2) dopamine receptor stood at 0.072 µM; in experiment [1] it was 0.0598 µM. Consider `O=C(CCCN1C2CCCC1c1c([nH]c3ccc(F)cc13)C2)c1ccc(F)cc1` (stereo unspecified), for which it took a dose of 5.89 mg/kg to reach the 50% effect level in experiment [2] (ED50). For the compound `Cn1c2c(c3ccccc31)C1CCC(C2)N1CCCC(=O)c1ccc(F)cc1` (stereo unspecified), the values for the Ki (on D(2) dopamine receptor; in experiment [1]) were 0.287 µM and 0.00283 µM, respectively. Regarding `O=C(CCCN1C2CCC1c1c([nH]c3ccccc13)C2)c1ccc(F)cc1` (stereo unspecified), in experiment [2], the 50% effect level (ED50) was put at a dose of 20.9 mg/kg. In addition, the Ki on D(2) dopamine receptor amounted to 0.275 µM.

The record behind these values is ChEMBL document CHEMBL1127045 (J Med Chem, 1993).
